Holding throughout (format): binding
In one test the test system is AMPKa1 or AMPKa2. Put plainly: Probe-based (AX9989) kinase profiling in Jurkat lysate: AMPKa1 or AMPKa2. The essentials: (§1)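 Compounds were pre-incubated for 15 min at room temperature with gel-filtered Jurkat cell lysate supplemented with 20 mM MnCl2, after which the acyl phosphate ATP probe AX9989 was added at 5 μM final. Labeled active-site peptides were enriched after tryptic digestion and measured by LC/MS, with percent inhibition taken relative to samples without compound.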

The next test deals with AurB or AurC. Kind of test: Probe-based (AX9989) kinase profiling in Jurkat lysate: AurB or AurC. The method, boiled down: as §1
The target in the next test is T1, JAK1 (Homo sapiens, UniProt P23458).
T1 construct: screened for activity against several kinases in Jurkat cells; endogenous in cells; host or cells: Jurkat cell lysate
Kind of test: Probe-based (AX9989) kinase profiling in Jurkat lysate: JAK1. The settings on record: read-out: Kinase inhibition % at indicated screening concentration: JAK1; for inhibition at 1 µM: screening concentration 1.0 μM. The method, boiled down:
as §1

Another test deals with T2, ERK5 (Homo sapiens, UniProt Q13164).
T2 construct: screened for activity against several kinases in Jurkat cells; endogenous in cells; host or cells: Jurkat cell lysate
Kind of test: Probe-based (AX9989 acyl phosphate ATP probe) kinase profiling in Jurkat lysate: ERK5. The note with it: for IC50: calculated from percent inhibition of AX9989 labeling and the screening concentration, Jurkat lysate; for inhibition at 1 µM: screening concentration 1.0 μM. The method, boiled down:
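Gel-filtered Jurkat lysate (5 mg/ml, 20 mM MnCl2) preincubated 15 min at room temperature with compound, then labelled with 5 μM AX9989 acyl phosphate ATP probe. Probe-labelled ERK5 active-site peptides quantified by LC/MS after trypsin digestion and streptavidin capture; IC50 calculated from percent inhibition at the screening concentration.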

The target in the next test is T3, ACK (Homo sapiens, UniProt Q07912).
T3 construct: screened for activity against several kinases in Jurkat cells; endogenous in cells; host or cells: Jurkat cell lysate
Kind of test: Probe-based (AX9989) kinase profiling in Jurkat lysate: ACK. The settings on record: read-out: Kinase inhibition % at indicated screening concentration: ACK; for inhibition at 1 µM: screening concentration 1.0 μM. The method, boiled down:
as §1

Test [1] concerns the target T4, BRD4 bromodomain domain I [BRD4(1)] (Homo sapiens, UniProt O60885).
T4 construct: BRD4 bromodomain domain I [BRD4(1)]; purchased Cayman Chemicals
Put plainly: BRD4 bromodomain domain 1 inhibition assay (TR-FRET). The settings on record: screening concentration 10 μM. The method, boiled down:
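0.5% DMSO, in triplicate, using Cayman BRD4(1) TR-FRET protocol with slight modification. 670/620 nm ratio normalized to 10 μM JQ1, with DMSO control set as 0% inhibition.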

Another test relates to ABL or ARG. Put plainly: Probe-based (AX9989) kinase profiling in Jurkat lysate: ABL or ARG. The method, boiled down: as §1
Setting [2] is: read-out: Kinase inhibition % at indicated screening concentration: ERK5.

Structures are written as SMILES.

T1 sequence (P23458 whole entry): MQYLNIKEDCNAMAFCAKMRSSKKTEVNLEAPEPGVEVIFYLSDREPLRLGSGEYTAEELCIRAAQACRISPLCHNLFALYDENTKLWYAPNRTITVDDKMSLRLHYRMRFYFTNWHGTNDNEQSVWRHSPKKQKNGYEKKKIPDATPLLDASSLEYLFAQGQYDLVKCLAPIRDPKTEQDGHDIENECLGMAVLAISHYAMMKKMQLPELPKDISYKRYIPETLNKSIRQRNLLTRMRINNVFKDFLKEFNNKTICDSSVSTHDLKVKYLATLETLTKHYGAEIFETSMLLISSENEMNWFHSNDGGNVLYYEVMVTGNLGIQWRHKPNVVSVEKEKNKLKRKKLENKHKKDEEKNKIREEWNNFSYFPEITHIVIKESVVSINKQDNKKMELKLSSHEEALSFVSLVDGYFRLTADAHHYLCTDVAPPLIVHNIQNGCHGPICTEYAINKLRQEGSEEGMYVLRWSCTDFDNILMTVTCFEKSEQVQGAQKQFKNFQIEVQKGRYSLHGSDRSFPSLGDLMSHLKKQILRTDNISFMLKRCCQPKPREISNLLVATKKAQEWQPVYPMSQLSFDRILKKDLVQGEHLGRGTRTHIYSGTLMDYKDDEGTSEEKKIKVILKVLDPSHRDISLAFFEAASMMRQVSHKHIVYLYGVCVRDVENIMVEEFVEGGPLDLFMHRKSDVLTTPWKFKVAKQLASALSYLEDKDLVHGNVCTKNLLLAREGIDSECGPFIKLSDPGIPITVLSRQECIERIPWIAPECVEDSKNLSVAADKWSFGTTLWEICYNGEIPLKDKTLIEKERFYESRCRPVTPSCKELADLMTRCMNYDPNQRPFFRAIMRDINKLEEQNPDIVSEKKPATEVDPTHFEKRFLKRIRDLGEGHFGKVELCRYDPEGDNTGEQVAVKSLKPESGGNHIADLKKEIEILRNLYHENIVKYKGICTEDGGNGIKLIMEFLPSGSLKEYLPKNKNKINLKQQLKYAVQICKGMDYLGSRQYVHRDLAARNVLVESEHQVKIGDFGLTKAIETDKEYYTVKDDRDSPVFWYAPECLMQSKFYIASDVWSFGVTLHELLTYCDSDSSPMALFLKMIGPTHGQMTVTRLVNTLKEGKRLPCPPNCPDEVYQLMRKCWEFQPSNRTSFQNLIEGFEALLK
T3 sequence (Q07912 whole entry): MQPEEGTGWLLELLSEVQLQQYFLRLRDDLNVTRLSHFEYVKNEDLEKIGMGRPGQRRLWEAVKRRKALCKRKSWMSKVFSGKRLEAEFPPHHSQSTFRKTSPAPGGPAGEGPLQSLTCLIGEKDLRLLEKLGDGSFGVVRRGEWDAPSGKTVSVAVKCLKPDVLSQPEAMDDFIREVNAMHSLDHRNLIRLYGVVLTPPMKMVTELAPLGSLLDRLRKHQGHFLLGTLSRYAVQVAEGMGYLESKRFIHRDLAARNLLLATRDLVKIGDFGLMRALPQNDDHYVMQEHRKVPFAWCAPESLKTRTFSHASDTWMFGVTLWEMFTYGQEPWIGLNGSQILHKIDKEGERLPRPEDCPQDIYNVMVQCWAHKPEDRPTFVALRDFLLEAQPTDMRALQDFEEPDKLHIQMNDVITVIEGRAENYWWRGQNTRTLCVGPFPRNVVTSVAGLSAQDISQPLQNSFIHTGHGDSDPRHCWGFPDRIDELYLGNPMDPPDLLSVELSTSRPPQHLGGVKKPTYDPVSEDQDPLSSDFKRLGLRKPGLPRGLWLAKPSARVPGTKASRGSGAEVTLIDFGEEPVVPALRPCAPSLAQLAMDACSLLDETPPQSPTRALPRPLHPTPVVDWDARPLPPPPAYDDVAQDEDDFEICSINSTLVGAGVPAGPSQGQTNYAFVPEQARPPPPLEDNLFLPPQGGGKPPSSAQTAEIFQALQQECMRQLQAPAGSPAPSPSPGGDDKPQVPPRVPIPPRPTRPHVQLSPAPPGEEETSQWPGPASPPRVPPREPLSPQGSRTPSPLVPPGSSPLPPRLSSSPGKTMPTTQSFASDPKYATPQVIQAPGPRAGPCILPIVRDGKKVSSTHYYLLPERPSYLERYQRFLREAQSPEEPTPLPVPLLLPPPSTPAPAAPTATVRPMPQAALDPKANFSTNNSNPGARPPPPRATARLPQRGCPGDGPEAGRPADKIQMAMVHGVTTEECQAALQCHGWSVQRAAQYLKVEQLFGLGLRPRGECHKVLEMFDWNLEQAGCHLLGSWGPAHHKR
T2 sequence (Q13164 whole entry): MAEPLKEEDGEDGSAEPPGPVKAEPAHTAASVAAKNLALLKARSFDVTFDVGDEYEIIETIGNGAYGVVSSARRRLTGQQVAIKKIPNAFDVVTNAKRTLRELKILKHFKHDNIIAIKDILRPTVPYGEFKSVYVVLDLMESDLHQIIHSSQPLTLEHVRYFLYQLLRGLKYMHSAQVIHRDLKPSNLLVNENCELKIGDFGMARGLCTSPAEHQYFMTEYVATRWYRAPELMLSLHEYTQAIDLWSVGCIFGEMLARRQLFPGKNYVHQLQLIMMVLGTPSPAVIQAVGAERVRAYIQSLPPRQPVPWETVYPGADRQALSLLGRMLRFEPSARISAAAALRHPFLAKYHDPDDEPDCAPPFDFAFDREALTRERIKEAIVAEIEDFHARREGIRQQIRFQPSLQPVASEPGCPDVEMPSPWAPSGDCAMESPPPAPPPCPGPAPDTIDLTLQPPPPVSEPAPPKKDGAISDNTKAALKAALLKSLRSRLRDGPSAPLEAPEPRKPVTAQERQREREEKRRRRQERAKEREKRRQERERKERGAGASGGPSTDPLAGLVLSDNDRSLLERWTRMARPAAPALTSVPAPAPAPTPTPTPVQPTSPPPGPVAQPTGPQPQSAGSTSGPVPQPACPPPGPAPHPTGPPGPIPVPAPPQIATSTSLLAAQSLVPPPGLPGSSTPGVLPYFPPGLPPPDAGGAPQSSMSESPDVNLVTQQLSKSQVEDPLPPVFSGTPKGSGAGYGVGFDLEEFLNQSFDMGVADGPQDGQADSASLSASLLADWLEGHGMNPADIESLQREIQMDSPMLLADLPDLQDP

As for `CCOc1cc(C(=O)N2CCC(NC)C2)ccc1Nc1cc2c(cn1)N(C)C(=O)c1occc1N2C` (stereo not drawn) [Compound 43], the “Kinase inhibition % at indicated screening concentration: AMPKa1 or AMPKa2” value (“Kinase inhibition % … AMPKa1 or AMPKa2” for short) in the test on AMPKa1 or AMPKa2 (screening concentration 0.1 μM) was “E (E is ≦35%)”. The “Kinase inhibition % at indicated screening concentration: AurB or AurC” value (shortened to “Kinase inhibition % … AurB or AurC”) in the test on AurB or AurC (screening concentration 0.1 μM) is reported as “E (E is ≦35%)”. The inhibition at 0.1 µM at JAK1 (screening concentration 0.1 μM) was at most 35%; on ERK5 (screening concentration 0.1 μM, read-out: Kinase inhibition % at indicated screening concentration: ERK5), over 90%; on ACK (screening concentration 0.1 μM) it was at most 35%. Besides, at ERK5, the IC50 is at most 50 nM. Besides, the inhibition at 10 µM in test [1] is over 85%. In addition, the “Kinase inhibition % at indicated screening concentration: ABL or ARG” value (“Kinase inhibition % … ABL or ARG” below) with ABL or ARG (screening concentration 0.1 μM) is recorded as “E (E is ≦35%)”.
For the molecule `CCOc1cc(C(=O)NCCN2CCN(C)CC2)ccc1Nc1cc2c(cn1)N(C)C(=O)c1ccccc1N2C` [Compound 44], the “Kinase inhibition % … AMPKa1 or AMPKa2” value in the test on AMPKa1 or AMPKa2 (screening concentration 1.0 μM) is “E (E is ≦35%)”. Further, the “Kinase inhibition % … AurB or AurC” value in the test on AurB or AurC (screening concentration 1.0 μM) was “E (E is ≦35%)”. Besides, the inhibition at 1 µM was at most 35% at JAK1, 75 to 90% on ERK5 (setting [2]) and at most 35% at ACK. In addition, the IC50 on ERK5 was 101 to 500 nM. The inhibition at 10 µM in test [1] lay within 70 to 85%. In addition, the “Kinase inhibition % … ABL or ARG” value with ABL or ARG (screening concentration 1.0 μM) is on record as “E (E is ≦35%)”.
For the molecule `CN1C(=O)c2ccccc2N(C)c2cc(N[C@H]3CC[C@H](NC4=NCCO4)CC3)ncc21` [Compound 45], in the test with AMPKa1 or AMPKa2 (screening concentration 1.0 μM), the “Kinase inhibition % … AMPKa1 or AMPKa2” value is reported as “E (E is ≦35%)”. The “Kinase inhibition % … AurB or AurC” value in the test with AurB or AurC (screening concentration 1.0 μM) was “E (E is ≦35%)”. For the same molecule, the inhibition at 1 µM is at most 35% on JAK1, 75 to 90% on ERK5 (setting [2]) and at most 35% on ACK. For the same molecule, on ERK5, the IC50 was 101 to 500 nM. In addition, in test [1], the inhibition at 10 µM was under 70%. Besides, in the test on ABL or ARG (screening concentration 1.0 μM), the “Kinase inhibition % … ABL or ARG” value is “E (E is ≦35%)”.

Source of the values: US20170008888A1 (KYORIN PHARMACEUTICAL CO., LTD., priority 2014, published 2017).
